Literature values as cited in patent US10166212B2, “Oral use of zinc and copper gluconates in the treatment of digital dermatitis” (DANTRACE, priority 2015, dated 2019).

Assays:
[1] = system: digital dermatitis lesions
[2] = administered as pills of zinc oxide; remainder excreted in feces

| Structure (SMILES) | healing rate, treatment vs. control group ([1]; by day 34, P=0.01) | overall positive effect (healing and improvement), treatment vs. control ([1]; by day 34, P=0.05) [fold] | healing rate (change to M0) ([1]; by day 34 post-treatment, 10 g salicylic acid powder in bandage vs chlortetracycline spray control) [%] | proportion of lesions getting smaller, treatment vs. control ([1]; by days 14 and 34, P<0.08) [times] | healing rates between treatment groups ([1]; days 3 and 14) | zinc taken up by the digestive system [2] [%] |
| --- | --- | --- | --- | --- | --- | --- |
| O=C(O)c1ccccc1O [salicylic acid] | fivefold better | 1.75 | 13.6 | 2.5 | did not differ significantly |  |
| [O]=[Zn] [zinc oxide] |  |  |  |  |  | 20 |
